# Reference: paper PMC8595653, “Activation of specific bitter taste receptors by olive oil phenolics and secoiridoids” (Scientific Reports, 2021)
# “Also recorded” adds a separate entry of the source.
# Tests used:
# TAS2R5 = target: T1, TAS2R5 (Homo sapiens, UniProt Q9NYW4); assay: Calcium mobilization functional assay, TAS2R5; assay type: cell-based; details: 1 mM, versus empty pcDNA vector
# T1 construct: first 45 amino acids of rat somatostatin type 3 receptor (SSTR3) export tag (N); expressed in transfected cells; host or cells: HEK293E
# Description: (§1) All constructs were confirmed by DNA sequencing.
# (§2) Data from single dose experiments were collected as duplicates. […] Data represent mean ± SD.
# 25 human TAS2Rs = assay: Single dose scanning of phenolic compounds on the 25 bitter taste receptors (calcium mobilization, HEK293E); assay type: cell-based; details: single dose 300 µM, 25 TAS2Rs, N = 2
# Description: as §1, §2
# To characterize the bitterness of olive oil phenolic compounds, we performed calcium mobilization experiments. The 25 bitter taste receptors, G protein chimera (Gα16-gus44), and the GCaMP calcium sensor[68] were transiently expressed in HEK293E cells. Twelve olive oil phenolic compounds (Fig. 1) were tested for bitter taster receptor activation (Fig. 3). […] Ligstroside aglycon, and Oleuropein aglycon activated TAS2R1, TAS2R8 and TAS2R14 receptors. To validate the single dose scanning results, we performed concentration–response experiments for all the compounds toward receptors TAS2R1, TAS2R8, and TAS2R14 that produced the most significant responses (Fig. 4).
# Figure 3 Phenolic compound bitter taste activity tests on hTAS2Rs. Relative fluorescence signals caused by phenolic compound activation of the receptors and the empty vector as a negative control. The concentration of the compounds used was [300 µM], except for Ligstroside aglycon and Oleuropein aglycon [200 µM], oleuropein that was [3 mM]. The asterisks indicate significant differences tested by one-way ANOVA (***p < 0.0001) (N = 2). Data represent mean ± SD.
# TRPA1 receptor/channels = tested on: TRPA1 receptor/channels; set-up: method as in PMID 21248124; details: cited from earlier work
# TAS2R7 = target: T2, TAS2R7 (Homo sapiens, UniProt Q9NYW3); assay: Calcium mobilization functional assay, TAS2R7; assay type: cell-based; details: 10 mM, versus empty pcDNA vector
# T2 construct: first 45 amino acids of rat somatostatin type 3 receptor (SSTR3) export tag (N); expressed in transfected cells; host or cells: HEK293E
# Description: as §1, §2
# TAS2R3 = target: T3, TAS2R3 (Homo sapiens, UniProt Q9NYW6); assay: Calcium mobilization functional assay, TAS2R3; assay type: cell-based; details: 10 mM, versus empty pcDNA vector
# T3 construct: first 45 amino acids of rat somatostatin type 3 receptor (SSTR3) export tag (N); expressed in transfected cells; host or cells: HEK293E
# Description: as §1, §2
# TAS2R10 = target: T4, TAS2R10 (Homo sapiens, UniProt Q9NYW0); assay: Calcium mobilization functional assay, TAS2R10; assay type: cell-based; details: 30 µM, versus empty pcDNA vector
# T4 construct: first 45 amino acids of rat somatostatin type 3 receptor (SSTR3) export tag (N); expressed in transfected cells; host or cells: HEK293E
# Description: as §1, §2
# TAS2R13 = target: T5, TAS2R13 (Homo sapiens, UniProt Q9NYV9); assay: Calcium mobilization functional assay, TAS2R13; assay type: cell-based; details: 10 mM, versus empty pcDNA vector
# T5 construct: first 45 amino acids of rat somatostatin type 3 receptor (SSTR3) export tag (N); expressed in transfected cells; host or cells: HEK293E
# Description: as §1, §2
# TAS2R9 = target: T6, TAS2R9 (Homo sapiens, UniProt Q9NYW1); assay: Calcium mobilization functional assay, TAS2R9; assay type: cell-based; details: 20 mM, versus empty pcDNA vector
# T6 construct: first 45 amino acids of rat somatostatin type 3 receptor (SSTR3) export tag (N); expressed in transfected cells; host or cells: HEK293E
# Description: as §1, §2
# TAS2R16 = target: T7, TAS2R16 (Homo sapiens, UniProt Q9NYV7); assay: Calcium mobilization functional assay, TAS2R16; assay type: cell-based; details: 10 mM, versus empty pcDNA vector
# T7 construct: first 45 amino acids of rat somatostatin type 3 receptor (SSTR3) export tag (N); expressed in transfected cells; host or cells: HEK293E
# Description: as §1, §2
# T5 sequence (Q9NYV9 whole entry): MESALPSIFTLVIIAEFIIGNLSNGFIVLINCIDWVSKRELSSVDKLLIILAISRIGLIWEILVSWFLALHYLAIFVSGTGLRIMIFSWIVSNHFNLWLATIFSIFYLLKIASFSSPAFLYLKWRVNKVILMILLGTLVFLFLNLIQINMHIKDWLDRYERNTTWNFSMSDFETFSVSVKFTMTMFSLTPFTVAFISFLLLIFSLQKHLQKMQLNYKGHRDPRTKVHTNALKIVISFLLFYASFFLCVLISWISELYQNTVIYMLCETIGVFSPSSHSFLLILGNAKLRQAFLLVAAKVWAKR
# T3 sequence (Q9NYW6 whole entry): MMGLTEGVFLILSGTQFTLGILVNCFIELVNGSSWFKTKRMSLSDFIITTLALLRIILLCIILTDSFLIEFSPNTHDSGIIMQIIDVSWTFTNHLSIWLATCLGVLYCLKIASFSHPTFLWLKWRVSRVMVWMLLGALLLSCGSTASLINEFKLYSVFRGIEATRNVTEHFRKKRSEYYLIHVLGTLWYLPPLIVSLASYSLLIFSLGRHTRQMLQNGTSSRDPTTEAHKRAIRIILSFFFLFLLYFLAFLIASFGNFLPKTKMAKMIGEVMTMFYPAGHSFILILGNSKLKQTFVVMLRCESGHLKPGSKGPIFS
# T2 sequence (Q9NYW3 whole entry): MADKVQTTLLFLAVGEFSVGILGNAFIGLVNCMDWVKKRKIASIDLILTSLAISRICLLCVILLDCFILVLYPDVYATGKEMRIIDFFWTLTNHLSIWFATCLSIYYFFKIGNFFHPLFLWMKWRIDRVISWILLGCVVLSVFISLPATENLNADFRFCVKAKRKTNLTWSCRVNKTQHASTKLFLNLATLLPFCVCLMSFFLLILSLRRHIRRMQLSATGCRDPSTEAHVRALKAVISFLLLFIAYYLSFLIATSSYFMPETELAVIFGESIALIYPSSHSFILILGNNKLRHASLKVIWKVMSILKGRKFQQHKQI
# T7 sequence (Q9NYV7 whole entry): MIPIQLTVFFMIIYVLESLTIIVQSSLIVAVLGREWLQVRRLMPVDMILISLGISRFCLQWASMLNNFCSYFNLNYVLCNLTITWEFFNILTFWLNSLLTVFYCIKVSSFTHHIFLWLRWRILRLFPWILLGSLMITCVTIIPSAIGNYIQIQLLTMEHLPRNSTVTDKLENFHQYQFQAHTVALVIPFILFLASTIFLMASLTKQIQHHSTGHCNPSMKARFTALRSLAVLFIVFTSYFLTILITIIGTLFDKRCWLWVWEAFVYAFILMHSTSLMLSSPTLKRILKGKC
# T6 sequence (Q9NYW1 whole entry): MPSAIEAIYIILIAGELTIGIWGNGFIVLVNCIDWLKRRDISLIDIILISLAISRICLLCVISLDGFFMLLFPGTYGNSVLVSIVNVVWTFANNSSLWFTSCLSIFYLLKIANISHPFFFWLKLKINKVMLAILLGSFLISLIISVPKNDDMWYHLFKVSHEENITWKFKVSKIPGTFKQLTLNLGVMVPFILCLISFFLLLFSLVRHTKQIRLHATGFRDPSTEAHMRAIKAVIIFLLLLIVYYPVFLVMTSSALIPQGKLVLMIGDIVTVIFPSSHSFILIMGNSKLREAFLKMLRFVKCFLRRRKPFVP
# T1 sequence (Q9NYW4 whole entry): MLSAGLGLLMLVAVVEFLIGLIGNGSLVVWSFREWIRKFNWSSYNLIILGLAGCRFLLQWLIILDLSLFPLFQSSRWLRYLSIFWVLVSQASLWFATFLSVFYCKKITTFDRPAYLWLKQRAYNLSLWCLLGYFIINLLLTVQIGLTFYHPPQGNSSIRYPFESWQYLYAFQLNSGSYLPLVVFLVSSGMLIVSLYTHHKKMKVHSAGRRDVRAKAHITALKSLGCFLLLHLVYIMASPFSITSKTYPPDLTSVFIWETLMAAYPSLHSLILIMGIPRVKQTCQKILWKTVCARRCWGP
# T4 sequence (Q9NYW0 whole entry): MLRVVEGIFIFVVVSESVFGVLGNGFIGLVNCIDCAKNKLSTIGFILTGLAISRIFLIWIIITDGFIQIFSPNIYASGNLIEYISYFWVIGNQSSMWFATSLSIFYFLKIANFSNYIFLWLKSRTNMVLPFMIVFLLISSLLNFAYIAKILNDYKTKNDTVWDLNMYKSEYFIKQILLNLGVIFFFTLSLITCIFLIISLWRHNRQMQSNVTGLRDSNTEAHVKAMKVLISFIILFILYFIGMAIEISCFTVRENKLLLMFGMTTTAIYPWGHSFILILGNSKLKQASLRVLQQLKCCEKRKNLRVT
smiles,measurement,setting,value
"c1cnc2c(c1)ccc1cccnc12 [1,10-phenanthroline]",activation of TAS2R5,TAS2R5,activated
"C/C=C(/C=O)[C@@H](CC=O)CC(=O)OCCc1ccc(O)cc1 [Oleocanthal, oleocanthal]",activation of any TAS2R,25 human TAS2Rs,did not activate any TAS2Rs
same,activation of any TAS2R,25 human TAS2Rs; listed as oleocanthal,did not show any activation of bitter receptors; also recorded: failed to activate any TAS2Rs
same,activation of TRPA1 receptor/channels,TRPA1 receptor/channels,activates
CCN(CC)CCCC(C)Nc1ccnc2cc(Cl)ccc12 (stereo not shown) [chloroquine],activation of TAS2R7,TAS2R7,activated
same,activation of TAS2R3,TAS2R3,activated
CC(=O)OC(C)(C)/C=C/C(=O)[C@](C)(O)[C@H]1[C@H](O)C[C@@]2(C)[C@@H]3CC=C4[C@@H](C=C(O)C(=O)C4(C)C)[C@]3(C)C(=O)C[C@]12C [cucurbitacin E],activation of TAS2R10,TAS2R10,activated
CC[N+](C)(CC)CCOC(=O)C(O)(c1ccccc1)C1CCCCC1 (stereo not shown) [oxyphenonium],activation of TAS2R13,TAS2R13,activated
CCN(CC)CCNC(=O)c1ccc(N)cc1 [procainamide],activation of TAS2R9,TAS2R9,activated
OCc1ccccc1O[C@@H]1O[C@H](CO)[C@@H](O)[C@H](O)[C@H]1O [salicin],activation of TAS2R16,TAS2R16,activated
